Results: article PMC4957090, “A novel allele of L-galactono-1,4-lactone dehydrogenase is associated with enhanced drought tolerance through affecting stomatal aperture in common wheat” (Scientific Reports, 2016)

Columns and labels:
[1] = biological target: T1, TaGLDH-D1 (Triticum aestivum, UniProt W5FUB4); assay: cytochrome c reduction, absorbance at […] nm, crude mitochondrial fraction; type: biochemical; settings: 4 μM L-GalL, 60 μM cytochrome c, 50 mM Tris-HCl pH 8.0, 0.15% Triton X-100; against PEBV:GUS control
T1 construct: gene LOC123120310; crude mitochondrial fraction

[2] = biological target: T2, TaGLDH-B1 (Triticum aestivum, UniProt W5FJN8); assay: as above; type: biochemical; settings: 4 μM L-GalL, 60 μM cytochrome c, 50 mM Tris-HCl pH 8.0, 0.15% Triton X-100; against PEBV:GUS control
T2 construct: gene LOC123111215; crude mitochondrial fraction

[3] = substrate: O=C1O[C@H]([C@@H](O)CO)[C@@H](O)[C@@H]1O; assay: purified protein; type: biochemical, Triticum aestivum; settings: 60 μM cytochrome c, 25 mM Tris-HCl pH 8.0, 25 mM NaCl

T2 sequence (W5FJN8 entry or part of it): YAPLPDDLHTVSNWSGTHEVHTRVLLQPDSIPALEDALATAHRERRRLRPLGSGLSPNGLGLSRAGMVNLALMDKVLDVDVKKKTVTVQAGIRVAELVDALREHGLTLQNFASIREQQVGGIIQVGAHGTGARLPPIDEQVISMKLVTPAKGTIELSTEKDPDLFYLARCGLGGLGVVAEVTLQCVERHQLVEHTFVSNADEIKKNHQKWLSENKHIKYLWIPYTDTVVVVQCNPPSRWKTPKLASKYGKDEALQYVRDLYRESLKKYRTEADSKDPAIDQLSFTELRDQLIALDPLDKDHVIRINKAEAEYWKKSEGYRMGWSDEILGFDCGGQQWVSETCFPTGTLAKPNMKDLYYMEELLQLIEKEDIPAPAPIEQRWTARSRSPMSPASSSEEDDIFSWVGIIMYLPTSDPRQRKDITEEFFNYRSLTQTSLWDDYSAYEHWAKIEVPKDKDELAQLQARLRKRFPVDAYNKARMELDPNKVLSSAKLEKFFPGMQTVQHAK
T1 sequence (W5FUB4 entry or part of it): as the sequence (W5FJN8 entry or part of it) above, with R133K, T158R, T241A, Y256H, I292L, S395C counted along it

## O=C1O[C@H]([C@@H](O)CO)[C@@H](O)[C@@H]1O [L-galactono-1,4-lactone]
[1]
  total GLDH activity: GLDH activity level was significantly higher in the leaves infected by PEBV:A1, PEBV:B1 or PEBV:D1
[2]
  total GLDH activity: GLDH activity level was significantly higher in the leaves infected by PEBV:A1, PEBV:B1 or PEBV:D1

B1: TaGLDH-A1a (wild-type allele of TaGLDH-A1) (Triticum aestivum; DEL501-501) (protein)
chain: YAPLPDDLHTVSNWSGTHEVHTRVLLQPDSIPALEDALATAHRERRRLRPLGSGLSPNGLGLSRAGMVNLALMDKVLDVDVKKKTVTVQAGIRVAELVDALSKHGLTLQNFASIREQQVGGIIQVGAHGTGARLPPIDEQVISMKLVTPAKGTIELSREKNPDLFYLARCGLGGLGVVAEVTLQCVERHQLVEHTFVSNADEIKKNHQNWLSENKHIKYLWIPYTDTVVVVQCNPPSRWKTPKLASKYVKDEALQHVRDLYRESLKKYRTEADSKDPAIDQLSFTELRDQLLALDPLDKDHVIRINKAEAEYWKKSEGYRMCWSDEILGFDCGGQQWVSETCFPTGTLAKPNMKDLYYMEELLQLIEEEDIPAPAPIEQRWTAHSRSPMSPASSSEEDDIFSWVGIIMYLPTSDPRQRKDITEFFNYRSLTQTSLWDDYSAYEHWAKIEVPKDKDELAQLQARLRKRFPVDAYNKARMELDPNKVLSSAKLEKFFPGMQTVQHAR
notes: without first 78 residues (putative mitochondrial targeting peptide), N-terminal His tag, pET-30a, E. coli
[3]; natural allele TaGLDH-A1b (Glu501 absent), cDNA from cv. Kashibaipi
  Km: 181.0 ± 67.1 µM

B2: TaGLDH-A1a (wild-type allele of TaGLDH-A1) (Triticum aestivum) (protein)
chain: YAPLPDDLHTVSNWSGTHEVHTRVLLQPDSIPALEDALATAHRERRRLRPLGSGLSPNGLGLSRAGMVNLALMDKVLDVDVKKKTVTVQAGIRVAELVDALSKHGLTLQNFASIREQQVGGIIQVGAHGTGARLPPIDEQVISMKLVTPAKGTIELSREKNPDLFYLARCGLGGLGVVAEVTLQCVERHQLVEHTFVSNADEIKKNHQNWLSENKHIKYLWIPYTDTVVVVQCNPPSRWKTPKLASKYVKDEALQHVRDLYRESLKKYRTEADSKDPAIDQLSFTELRDQLLALDPLDKDHVIRINKAEAEYWKKSEGYRMCWSDEILGFDCGGQQWVSETCFPTGTLAKPNMKDLYYMEELLQLIEEEDIPAPAPIEQRWTAHSRSPMSPASSSEEDDIFSWVGIIMYLPTSDPRQRKDITEEFFNYRSLTQTSLWDDYSAYEHWAKIEVPKDKDELAQLQARLRKRFPVDAYNKARMELDPNKVLSSAKLEKFFPGMQTVQHAR
notes: as for B1
[3]
  Km: 61.0 ± 5.4 µM
